Measurements reported in ChEMBL document CHEMBL4811232 (J Med Chem, 2021).

What was measured:
Beta-secretase 1 [1] = target: T1, Beta-secretase 1 (Homo sapiens, UniProt P56817)
Description: Inhibition of BACE1 in human SH-SY5Y cells expressing wild type betaAPP assessed as reduction in amyloidbeta (1 to 40 residues) level incubated for 24 hrs by HTRF assay

Beta-secretase 1 [2] = target: T1, Beta-secretase 1; remark: listed apart in the source
hERG (KCNH2) = hERG (KCNH2) (Homo sapiens, UniProt Q12809); assay: in vitro; conditions: CHO cells expressing human ERG
Description: Inhibition of human ERG expressed in CHO cells at 5 uM maintained at -80 mV membrane potential by automated patch-clamp assay relative to control

Cytochrome P450 2D6 = Cytochrome P450 2D6 (Homo sapiens, UniProt P10635)
Description: Inhibition of CYP2D6 in human liver microsomes using dextromethorphan as substrate incubated for 15 mins in presence of NADPH by LC/MS/MS analysis

in vitro [3] = conditions: Sprague-Dawley, rat, liver microsomes
Description: Metabolic stability in Sprague-Dawley rat liver microsomes assessed as parent compound remaining at 0.1 uM measured after 30 mins in presence of NADPH by LC-MS/MS analysis

in vitro [4] = conditions: human, pooled liver microsomes
Description: Metabolic stability in human pooled liver microsomes assessed as parent compound remaining at 0.1 uM measured after 30 mins in presence of NADPH by LC-MS/MS analysis

MDR1 (ABCB1, P-gp) = MDR1 (ABCB1, P-gp) (Homo sapiens, UniProt P08183); assay: in vitro; conditions: MDCK-MDR1
MDR1 (ABCB1, P-gp), sequence (P08183 whole entry): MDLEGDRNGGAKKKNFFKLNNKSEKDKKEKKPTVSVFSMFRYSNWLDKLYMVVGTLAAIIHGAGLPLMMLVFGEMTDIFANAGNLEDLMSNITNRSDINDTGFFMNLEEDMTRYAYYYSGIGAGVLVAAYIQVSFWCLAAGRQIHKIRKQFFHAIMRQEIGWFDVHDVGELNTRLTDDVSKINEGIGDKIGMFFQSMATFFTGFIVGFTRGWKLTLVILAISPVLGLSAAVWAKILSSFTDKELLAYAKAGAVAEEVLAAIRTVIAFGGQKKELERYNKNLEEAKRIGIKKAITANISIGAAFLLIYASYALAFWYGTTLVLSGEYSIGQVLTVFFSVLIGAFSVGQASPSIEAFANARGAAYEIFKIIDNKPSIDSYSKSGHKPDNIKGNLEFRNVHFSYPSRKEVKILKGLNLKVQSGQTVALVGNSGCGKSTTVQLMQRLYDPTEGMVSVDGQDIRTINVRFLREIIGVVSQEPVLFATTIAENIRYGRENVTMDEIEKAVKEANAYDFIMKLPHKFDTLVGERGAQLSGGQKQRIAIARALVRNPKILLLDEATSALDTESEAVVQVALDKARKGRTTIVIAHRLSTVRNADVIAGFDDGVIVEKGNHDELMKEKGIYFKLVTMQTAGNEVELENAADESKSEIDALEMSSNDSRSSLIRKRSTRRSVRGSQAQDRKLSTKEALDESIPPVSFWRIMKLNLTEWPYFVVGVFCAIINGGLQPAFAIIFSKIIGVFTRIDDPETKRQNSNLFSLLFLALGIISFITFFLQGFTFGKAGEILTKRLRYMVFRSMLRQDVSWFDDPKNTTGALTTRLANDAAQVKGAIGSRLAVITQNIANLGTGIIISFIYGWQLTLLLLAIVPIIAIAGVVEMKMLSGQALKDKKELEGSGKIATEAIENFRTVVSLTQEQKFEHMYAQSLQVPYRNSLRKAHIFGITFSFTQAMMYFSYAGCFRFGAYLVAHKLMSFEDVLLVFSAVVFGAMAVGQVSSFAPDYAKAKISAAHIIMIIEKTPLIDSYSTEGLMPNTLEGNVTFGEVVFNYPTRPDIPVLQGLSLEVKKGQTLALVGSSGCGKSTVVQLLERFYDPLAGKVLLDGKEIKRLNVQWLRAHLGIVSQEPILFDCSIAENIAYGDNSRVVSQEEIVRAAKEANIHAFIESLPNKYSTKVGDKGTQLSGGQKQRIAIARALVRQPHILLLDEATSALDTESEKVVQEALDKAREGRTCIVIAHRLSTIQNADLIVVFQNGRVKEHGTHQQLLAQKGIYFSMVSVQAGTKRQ
Description: Substrate activity at human MDR1 expressed in MDCK cells assessed as efflux ratio

in vitro [5] = conditions: dog, MDCK
Description: Apparent permeability in MDCK cells

[6] = human, microsomes, 1 h, 10 µM
Description: Drug metabolism in human liver microsomes assessed as NADPH-dependent covalent bond binding assessed per mg protein at 10 umol/L incubated for 1 hr in presence of NADPH by liquid scintillation counter analysis

[7] = human, microsomes, 1 h, 50 µM
Description: Drug metabolism in human liver microsomes assessed as NADPH-independent covalent bond binding assessed per mg protein at 50 umol/L incubated for 1 hr in presence of NADPH by liquid scintillation counter analysis

[8] = human, microsomes, 1 h, 10 µM; remark: listed apart in the source
Description: Drug metabolism in human liver microsomes assessed as total covalent bond binding assessed per mg protein at 10 umol/L incubated for 1 hr in presence of NADPH by liquid scintillation counter analysis

[9] = human, microsomes, 1 h, 50 µM; remark: listed apart in the source
Description: Drug metabolism in human liver microsomes assessed as total covalent bond binding assessed per mg protein at 50 umol/L incubated for 1 hr in presence of NADPH by liquid scintillation counter analysis

[10] = human, microsomes, 1 h, 50 µM; remark: listed apart in the source
Description: Drug metabolism in human liver microsomes assessed as NADPH-dependent covalent bond binding at 50 umol/L incubated for 1 hr in presence of NADPH by liquid scintillation counter analysis

[11] = human, microsomes, 1 h, 10 µM; remark: listed apart in the source
Description: Drug metabolism in human liver microsomes assessed as NADPH-independent covalent bond binding assessed per mg protein at 10 umol/L incubated for 1 hr in presence of NADPH by liquid scintillation counter analysis

T1 sequence (P56817 whole entry): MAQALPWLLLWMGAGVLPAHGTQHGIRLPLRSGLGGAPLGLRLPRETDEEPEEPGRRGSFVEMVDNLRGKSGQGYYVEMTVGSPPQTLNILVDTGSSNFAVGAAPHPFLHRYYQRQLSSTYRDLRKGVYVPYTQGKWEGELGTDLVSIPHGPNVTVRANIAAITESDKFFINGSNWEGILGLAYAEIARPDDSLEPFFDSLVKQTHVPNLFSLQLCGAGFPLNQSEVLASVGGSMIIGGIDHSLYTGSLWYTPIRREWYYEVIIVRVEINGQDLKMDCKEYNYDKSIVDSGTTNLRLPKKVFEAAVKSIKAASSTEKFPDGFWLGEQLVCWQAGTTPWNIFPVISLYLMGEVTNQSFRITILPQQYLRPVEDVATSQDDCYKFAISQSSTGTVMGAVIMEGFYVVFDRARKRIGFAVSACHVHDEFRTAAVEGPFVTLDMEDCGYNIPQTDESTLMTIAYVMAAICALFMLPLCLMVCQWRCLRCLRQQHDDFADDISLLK
Cytochrome P450 2D6, sequence (P10635 whole entry): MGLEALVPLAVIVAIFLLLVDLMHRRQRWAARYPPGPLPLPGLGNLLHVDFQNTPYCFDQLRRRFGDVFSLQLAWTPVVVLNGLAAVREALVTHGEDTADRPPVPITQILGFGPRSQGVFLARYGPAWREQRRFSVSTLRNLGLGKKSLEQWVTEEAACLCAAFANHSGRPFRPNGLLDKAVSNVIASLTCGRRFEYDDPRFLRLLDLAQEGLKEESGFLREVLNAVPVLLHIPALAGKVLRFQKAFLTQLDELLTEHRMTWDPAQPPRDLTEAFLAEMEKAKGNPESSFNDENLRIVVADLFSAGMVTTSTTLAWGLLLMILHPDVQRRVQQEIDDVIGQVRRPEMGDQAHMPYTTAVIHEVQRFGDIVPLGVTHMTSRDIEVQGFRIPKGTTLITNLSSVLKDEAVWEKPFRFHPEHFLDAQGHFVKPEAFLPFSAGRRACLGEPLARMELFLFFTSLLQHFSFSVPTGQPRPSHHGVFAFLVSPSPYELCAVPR
hERG (KCNH2), sequence (Q12809 whole entry): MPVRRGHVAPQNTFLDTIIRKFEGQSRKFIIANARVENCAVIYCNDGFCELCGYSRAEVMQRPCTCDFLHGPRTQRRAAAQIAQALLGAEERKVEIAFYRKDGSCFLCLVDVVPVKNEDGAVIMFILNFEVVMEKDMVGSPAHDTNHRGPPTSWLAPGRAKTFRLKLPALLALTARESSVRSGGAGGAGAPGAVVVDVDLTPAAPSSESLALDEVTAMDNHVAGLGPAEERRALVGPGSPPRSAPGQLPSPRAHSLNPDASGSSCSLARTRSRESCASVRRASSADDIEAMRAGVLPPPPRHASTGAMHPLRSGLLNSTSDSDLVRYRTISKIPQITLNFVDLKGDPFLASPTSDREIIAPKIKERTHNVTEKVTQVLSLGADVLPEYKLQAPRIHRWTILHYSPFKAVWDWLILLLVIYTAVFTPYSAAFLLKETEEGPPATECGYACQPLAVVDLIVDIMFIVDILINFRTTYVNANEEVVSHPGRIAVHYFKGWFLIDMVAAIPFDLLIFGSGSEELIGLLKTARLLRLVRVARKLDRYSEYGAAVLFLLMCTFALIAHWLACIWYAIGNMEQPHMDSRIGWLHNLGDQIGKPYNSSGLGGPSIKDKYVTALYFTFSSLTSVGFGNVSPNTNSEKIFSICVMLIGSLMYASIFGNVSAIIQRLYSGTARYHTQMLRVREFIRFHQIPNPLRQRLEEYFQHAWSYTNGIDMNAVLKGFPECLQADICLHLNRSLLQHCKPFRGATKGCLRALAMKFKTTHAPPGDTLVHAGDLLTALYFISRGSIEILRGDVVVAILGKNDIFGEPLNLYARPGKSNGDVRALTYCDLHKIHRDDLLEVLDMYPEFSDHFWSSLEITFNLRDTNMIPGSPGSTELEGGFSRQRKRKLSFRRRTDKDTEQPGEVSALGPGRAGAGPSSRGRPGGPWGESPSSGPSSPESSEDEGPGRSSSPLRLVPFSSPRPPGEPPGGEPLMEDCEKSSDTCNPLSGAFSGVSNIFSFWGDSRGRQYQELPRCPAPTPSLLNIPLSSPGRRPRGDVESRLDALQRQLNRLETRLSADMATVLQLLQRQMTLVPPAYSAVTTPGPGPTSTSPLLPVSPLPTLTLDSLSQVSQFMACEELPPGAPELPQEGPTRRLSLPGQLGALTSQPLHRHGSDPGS
Description for physchem: Dissociation constant, pKa of the compound by capillary electrophoresis method

| IC50 (Beta-secretase 1 [1]) [nM] | IC50 (Beta-secretase 1 [2]) [nM] | IC50 (Cytochrome P450 2D6) [nM] | remaining at 0.5 h, 0.1 µM (in vitro [3]) [%] | remaining at 0.5 h, 0.1 µM (in vitro [4]) [%] | efflux ratio (MDR1 (ABCB1, P-gp)) | Papp (in vitro [5]) [×10⁻⁶ cm/s] | pKa (physchem) | Drug metabolism [6] [pmol] | Drug metabolism [7] [pmol] | Drug metabolism [8] [pmol] | Drug metabolism [9] [pmol] | Drug metabolism [10] [pmol] | Drug metabolism [11] [pmol] | SMILES | inhibition at 5 µM (hERG (KCNH2)) [%] |
| --- | --- | --- | --- | --- | --- | --- | --- | --- | --- | --- | --- | --- | --- | --- | --- |
| 5.5 | 9.6 | < 1000 | 76 | 78 | – | – | – | – | – | – | – | – | – | C[C@@]1(c2cc(NC(=O)c3ccc(Cl)cn3)ccc2F)C=CSC(N)=N1 | 80 |
| 170 | 1450 | – | – | – | – | – | – | – | – | – | – | – | – | CC1(c2cccc(C(=O)Nc3ccc(Cl)cn3)c2)CCSC(N)=N1 (stereo not drawn) | – |
| 1.6 | 20 | > 20000 | 87 | 85 | 20 | – | – | – | – | – | – | – | – | C[C@@]1(c2cc(NC(=O)c3ncc(C#N)cc3Cl)ccc2F)C=CSC(N)=N1 | 48 |
| 4.2 | 39 | 11000 | 60 | 97 | 2 | – | – | – | – | – | – | – | – | C[C@@]1(c2cc(NC(=O)c3ccc(F)cn3)ccc2F)C=CSC(N)=N1 | 67 |
| 4.4 | 21 | < 1000 | 88 | 27 | 1.4 | – | – | – | – | – | – | – | – | COc1cnc(C(=O)Nc2ccc(F)c([C@]3(C)C=CSC(N)=N3)c2)cn1 | 29 |
| 1.1 | 9.1 | – | 8 | 65 | 5.3 | 38 | 7.8 | – | – | – | – | – | – | C=C1C[C@@](C)(c2cc(NC(=O)c3ccc(C#N)cn3)ccc2F)N=C(N)S1 | 78 |
| – | – | – | 66 | 104 | – | 12 | 9 | – | – | – | – | – | – | C[C@@]1(c2cc(NC(=O)c3ccc(C#N)cn3)ccc2F)CCSC(N)=N1 | 91 |
| 0.62 | 16 | – | 64 | 86 | 22 | 22 | 7.6 | – | – | – | – | – | – | N#Cc1ccc(C(=O)Nc2ccc(F)c([C@]3(CF)CCSC(N)=N3)c2)nc1 | 90 |
| 0.84 | 6.7 | – | – | – | – | – | – | – | – | – | – | – | – | C[C@@]1(c2cc(C(=O)Nc3ccc(Cl)cn3)ccc2F)CCSC(N)=N1 | – |
| – | – | – | – | – | – | – | – | 594 | 12 | 599 | 3458 | 3446 | 4 | CCc1ccc(CCOc2ccc(CC3SC(=O)NC3=O)cc2)nc1 (stereo not drawn) [PIOGLITAZONE] | – |
